# Patent US8088918B2, “Noncardiotoxic pharmaceutical compounds” (Williamsburg Holdings LLC, priority 2004, dated 2012)
# Tests used:
# [1] = Stability testing in simulated gastric fluids; settings: 10 μM, saline pH approximately 1 plus pepsin
# [2] = Metabolic stability, microsomal incubations with ketoconazole (CYP3A4 inhibitor); format: in vitro ADME; settings: 10 μM, 0.5 mg/mL microsomal protein
# Procedure: (§1) The metabolic stability of each compound prepared in Examples 1-5 was assessed in microsomal preparations obtained from BD Gentest (Woburn, Mass.).
# (§2) The metabolic stability of each compound prepared in Examples 1-5 was assessed in duplicate by incubation of 10 μM compound with 0.5 mg/mL microsomal protein, 1 mM in 0.1 M phosphate buffer, pH 7.4 in the presence and absence of a CYP3A4 inhibitor (ketoconazole). The reaction mixture was pre-incubated, in the absence of the microsomes, at ca. 37° C. for 5 minutes, followed by initiation of the incubation by the addition of microsomal protein and maintained at ca. 37° C. for a further 0, 30 and 60 minutes. After the appropriate incubation time, the mixtures were quenched by the addition of one volume of acetonitrile and the supernatant was isolated by centrifugation. Positive control incubations (7-ethoxycoumarin) were performed in the same manner as the compounds from Examples 1-5 and quenched after 0 and 30 minutes. In addition, negative control incubations were performed for 60 minutes in the absence of NADPH to assess chemical stability.
# (§3) Analysis of supernatants from each time interval was conducted for each compound prepared in Examples 1-5 by LC-MS analysis. Quantification of the disappearance on the parent drug was achieved by comparison of the sample response to that of a suitable standard curve constructed in 0.1 M phosphate buffer, pH 7.4. The standard curve ranged between ≦1% up to ≧100% of the dosing concentration.
# (§4) The % turnover following 60 minutes of incubation was calculated by comparison of the parent concentration to that at 0 minutes. The % degradation was calculated in the same manner from the negative control incubations. Appearance of the parent drug and the hydroxymetabolites were also monitored at each time interval.
# [3] = target: CYP2D6 (Homo sapiens, UniProt P10635); assay: Metabolic stability in the presence of CYP2D6 isozyme; format: in vitro ADME; design: purchased BD Gentest (Woburn, Mass.); settings: 10 μm compound
# Chain of CYP2D6 (P10635 whole entry): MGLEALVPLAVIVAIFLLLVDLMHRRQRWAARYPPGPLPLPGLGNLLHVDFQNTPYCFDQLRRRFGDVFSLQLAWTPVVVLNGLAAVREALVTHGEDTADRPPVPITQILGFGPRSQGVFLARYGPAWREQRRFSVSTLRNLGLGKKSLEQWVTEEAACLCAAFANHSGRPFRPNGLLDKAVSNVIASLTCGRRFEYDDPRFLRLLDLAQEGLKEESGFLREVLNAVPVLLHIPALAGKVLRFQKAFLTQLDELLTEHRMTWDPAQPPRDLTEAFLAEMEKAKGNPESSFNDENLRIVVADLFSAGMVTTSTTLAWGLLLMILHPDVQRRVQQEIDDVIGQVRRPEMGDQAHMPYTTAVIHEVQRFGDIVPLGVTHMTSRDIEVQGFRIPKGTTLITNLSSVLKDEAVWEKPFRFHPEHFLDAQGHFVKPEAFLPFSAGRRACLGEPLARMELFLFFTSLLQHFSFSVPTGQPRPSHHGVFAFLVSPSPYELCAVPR
# Procedure: (§5) The metabolic stability of each compound prepared in Examples 1-5 was assessed in the presence of CYP2D6 and CYP3A4 obtained from BD Gentest (Woburn, Mass.).
# (§6) The metabolic stability of each compound prepared in Examples 1-5 was assessed in duplicate by incubation of 10 μm compound with recombinant human CYP2D6 and 3A4 using similar conditions to those in Example 9. Samples were removed for analysis at 0, 30 and 60 minutes and extracted with one volume of organic solvent. Appropriate controls were included. Quantification of the disappearance of the prodrug was conducted LC-MS. Appearance of metabolites was also monitored.
# [4] = target: T1, recombinant human CYP3A4 (Homo sapiens, UniProt P08684); assay: Metabolic stability in the presence of CYP3A4 isozyme; format: in vitro ADME; settings: 10 μm compound
# T1 construct: purchased BD Gentest (Woburn, Mass.)
# T1 sequence (P08684 whole entry): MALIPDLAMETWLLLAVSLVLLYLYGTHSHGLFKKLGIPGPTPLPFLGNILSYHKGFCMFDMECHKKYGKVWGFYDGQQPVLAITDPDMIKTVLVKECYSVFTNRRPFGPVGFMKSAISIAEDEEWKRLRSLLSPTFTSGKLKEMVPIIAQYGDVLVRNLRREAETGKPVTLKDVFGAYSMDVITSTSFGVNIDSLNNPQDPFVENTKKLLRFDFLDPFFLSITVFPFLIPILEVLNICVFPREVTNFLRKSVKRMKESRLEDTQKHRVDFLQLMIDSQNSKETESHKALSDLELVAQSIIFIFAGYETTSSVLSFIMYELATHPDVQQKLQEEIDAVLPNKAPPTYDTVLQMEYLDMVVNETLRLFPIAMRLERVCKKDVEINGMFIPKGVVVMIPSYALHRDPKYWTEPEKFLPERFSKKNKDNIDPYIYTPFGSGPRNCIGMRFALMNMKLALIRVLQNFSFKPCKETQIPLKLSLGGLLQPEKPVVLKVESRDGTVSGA
# Procedure: as §5, §6
# [5] = Stability testing of prodrugs in human plasma; format: in vitro ADME; settings: 10 μM, ca. 37° C.
# Procedure: (§7) Pooled human plasma was obtained from Bioreclamation (East Meadow, N.Y.) by collection into sodium EDTA as the anticoagulant, and was stored at ca −20° C. prior to use. Prior to use, the plasma defrosted and was spun at ca. 3000 rpm for 5 minutes to remove any precipitate. The pH of the plasma was adjusted to pH 7.4 by careful addition of NaH2PO4 buffer.
# (§8) Plasma stability was assessed by incubation of 10 μM of each compound prepared in Examples 1-5 with human plasma, in duplicate, at ca. 37° C. with shaking. Each compound prepared in Examples 1-5 was also incubated at 10 μM in PBS as a control for compound heat stability. Aliquots were removed at 0, 0.5, 1 and 2 hours and stored at −20° C. until analysis.
# (§9) For analysis, plasma samples were extracted in 1 part acetonitrile and isolation of the supernatant. Analysis of each compound prepared in Examples 1-5 in plasma extracts was conducted by an LC-MS method at each time interval and quantification was achieved by comparison of the response due to the sample to that of a three point standard curve. Appearance of the parent drug the hydroxymetabolites were also monitored at each time interval. The % degradation following incubation at each time point was calculated by comparison of the parent concentration to that at 0 minutes.
# [6] = Metabolic stability, microsomal incubations without inhibitor; format: in vitro ADME; settings: 10 μM, 0.5 mg/mL microsomal protein
# Procedure: as §1, §2, §3, §4
# [7] = Stability testing of prodrugs in rat plasma (elevated esterase activity); format: in vitro ADME, Sprague-Dawley rat; settings: 10 μM, ca. 37° C.
# Procedure: as §7, with “Sprague-Dawley rat” for “Pooled human”, “obtained” for “obtained from Bioreclamation (East Meadow, N.Y.)”
# as §8, with “rat” for “human”
# as §9, with “drug and” for “drug”
# [8] = Stability testing in simulated intestinal fluids; settings: 10 μM
# [9] = parent drugs; cited from earlier work
# [10] = human plasma; cited from earlier work
# [11] = phosphate pH 6, incubation time 0 min
# [12] = phosphate pH 6, incubation time 30 min
# [13] = phosphate pH 6, incubation time 60 min
# [14] = phosphate pH 6, incubation time 120 min
SMILES,Loss of parent compound in simulated gastric fluid (%) ([1]; incubation time 0 min),Loss of parent compound in simulated gastric fluid (%) ([1]; incubation time 30 min),Loss of parent compound with ketoconazole (%) ([2]; incubation time 30 min),Loss of parent compound with ketoconazole (%) ([2]; incubation time 60 min),Loss of parent compound with CYP2D6 isozyme (%) ([3]; incubation time 0 min),Loss of parent compound with CYP2D6 isozyme (%) ([3]; incubation time 30 min),Loss of parent compound with CYP3A4 isozyme (%) ([4]; incubation time 0 min),Loss of parent compound with CYP3A4 isozyme (%) ([4]; incubation time 30 min),Loss of parent compound with CYP3A4 isozyme (%) ([4]; incubation time 60 min),Loss of parent compound in human plasma (%) ([5]; incubation time 0 min),Loss of parent compound in human plasma (%) ([5]; incubation time 30 min),Loss of parent compound in human plasma (%) ([5]; incubation time 60 min),Loss of parent compound in human plasma (%) ([5]; incubation time 120 min),Loss of parent compound with no ketoconazole (%) ([6]; incubation time 30 min),Loss of parent compound with no ketoconazole (%) ([6]; incubation time 60 min),Loss of parent compound in rat plasma (%) ([7]; incubation time 0 min),Loss of parent compound in rat plasma (%) ([7]; incubation time 30 min),Loss of parent compound in rat plasma (%) ([7]; incubation time 60 min),Loss of parent compound in rat plasma (%) ([7]; incubation time 120 min),"Loss of parent compound in simulated intestinal fluid (%) [8, 11] [%]",further results
"COC(=O)N(C)CCCN1c2ccccc2CCc2ccccc21 [RIC-5a, [3-(10,11-Dihydro-dibenzo[b,f]azepin-5-yl)-propyl]-methyl-carbamic acid methyl ester]",0.00,13.93,27.65,62.37,0.00,73.91,0.00,91.32,97.96,0.00,5.47,15.80,26.22,70.94,87.25,0.00,8.81,23.43,45.85,0.00,"Loss of parent compound in simulated gastric fluid (%) ([1]; incubation time 60 min): 31.78%; Loss of parent compound in simulated gastric fluid (%) ([1]; incubation time 120 min): 81.43%; Loss of parent compound with CYP2D6 isozyme (%) ([3]; incubation time 60 min): 83.13%; Loss of parent compound in simulated intestinal fluid (%) [8, 12]: 16.75%; Loss of parent compound in simulated intestinal fluid (%) [8, 13]: 22.88%; Loss of parent compound in simulated intestinal fluid (%) [8, 14]: 35.18%"
"CCCCCCCCOC(=O)N(C)CCCN1c2ccccc2CCc2ccccc21 [RIC-5d, [3-(10,11-Dihydro-dibenzo[b,f]azepin-5-yl)-propyl]-methyl-carbamic acid octyl ester]",0.00,13.84,15.18,55.88,0.00,18.68,0.00,33.66,60.64,0.00,−32.74,−1.44,49.54,59.12,74.17,0.00,−8.16,41.70,73.48,0.00,"Loss of parent compound in simulated intestinal fluid (%) [8, 12]: 7.73%; Loss of parent compound in simulated intestinal fluid (%) [8, 13]: −8.72%; Loss of parent compound in simulated intestinal fluid (%) [8, 14]: 4.23%"
Fc1ccc([C@@H]2CCNC[C@H]2COc2ccc3c(c2)OCO3)cc1 [paroxetine],,,,,,,,,,,,,,,,,,,,,pKa [9]: 9.90; AUC(0-24) [10]: 96.5 ng·h/mL; Cmax [10]: 8.60 ng/mL; Tmax [10]: 5 (3-5) hours

# More lines, main results first:
Loss of parent compound in simulated gastric fluid (%) ([1]; incubation time 0 min),Loss of parent compound in simulated gastric fluid (%) ([1]; incubation time 30 min),Loss of parent compound with ketoconazole (%) ([2]; incubation time 30 min),Loss of parent compound with ketoconazole (%) ([2]; incubation time 60 min),Loss of parent compound with CYP2D6 isozyme (%) ([3]; incubation time 0 min),Loss of parent compound with CYP2D6 isozyme (%) ([3]; incubation time 30 min),Loss of parent compound with CYP3A4 isozyme (%) ([4]; incubation time 0 min),Loss of parent compound with CYP3A4 isozyme (%) ([4]; incubation time 30 min),Loss of parent compound with CYP3A4 isozyme (%) ([4]; incubation time 60 min),Loss of parent compound in human plasma (%) ([5]; incubation time 0 min),Loss of parent compound in human plasma (%) ([5]; incubation time 30 min),Loss of parent compound in human plasma (%) ([5]; incubation time 60 min),Loss of parent compound in human plasma (%) ([5]; incubation time 120 min),Loss of parent compound with no ketoconazole (%) ([6]; incubation time 30 min),Loss of parent compound with no ketoconazole (%) ([6]; incubation time 60 min),Loss of parent compound in rat plasma (%) ([7]; incubation time 0 min),Loss of parent compound in rat plasma (%) ([7]; incubation time 30 min),Loss of parent compound in rat plasma (%) ([7]; incubation time 60 min),Loss of parent compound in rat plasma (%) ([7]; incubation time 120 min),"Loss of parent compound in simulated intestinal fluid (%) [8, 11] [%]",SMILES,further results
0.00,58.72,31.69,50.21,0.00,19.21,0.00,92.32,95.20,0.00,7.15,6.85,21.06,64.76,82.29,0.00,7.17,8.34,23.42,0.00,"CCCOC(=O)N(C)CCCN1c2ccccc2CCc2ccccc21 [RIC-5b, [3-(10,11-Dihydro-dibenzo[b,f]azepin-5-yl)-propyl]-methyl-carbamic acid propyl ester]","Loss of parent compound in simulated gastric fluid (%) ([1]; incubation time 60 min): 26.67%; Loss of parent compound in simulated gastric fluid (%) ([1]; incubation time 120 min): 94.37%; Loss of parent compound with CYP2D6 isozyme (%) ([3]; incubation time 60 min): 28.01%; Loss of parent compound in simulated intestinal fluid (%) [8, 12]: 6.73%; Loss of parent compound in simulated intestinal fluid (%) [8, 13]: 13.57%; Loss of parent compound in simulated intestinal fluid (%) [8, 14]: 25.61%"
0.00,70.64,6.36,19.49,0.00,43.71,0.00,72.07,90.69,0.00,5.11,−1.48,25.82,54.01,76.36,0.00,−14.69,−2.88,33.40,0.00,"CC(C)COC(=O)N(C)CCCN1c2ccccc2CCc2ccccc21 [RIC-5c, [3-(10,11-Dihydro-dibenzo[b,f]azepin-5-yl)-propyl]-methyl-carbamic acid isobutyl ester]","Loss of parent compound in simulated gastric fluid (%) ([1]; incubation time 60 min): 82.77%; Loss of parent compound in simulated gastric fluid (%) ([1]; incubation time 120 min): 98.11%; Loss of parent compound with CYP2D6 isozyme (%) ([3]; incubation time 60 min): 70.07%; Loss of parent compound in simulated intestinal fluid (%) [8, 12]: 1.05%; Loss of parent compound in simulated intestinal fluid (%) [8, 13]: 12.68%; Loss of parent compound in simulated intestinal fluid (%) [8, 14]: 21.78%"
